In one assay the test system is CqsSPa. Briefly: V. harveyi bioluminescent reporter strain expressing cqsSPa. In kind it is cell-based, Photobacterium angustum. The conditions noted are these: for EC50: dose-dependent bioluminescence response.
The subject of a further assay is CqsSPa^S168C. The class given is cell-based, Photobacterium angustum. The conditions noted are these: Fig. S2.
The next assay addresses T1, CqsSVh (Vibrio campbellii, UniProt A7N6S2).
T1 sequence (A7N6S2 1-681): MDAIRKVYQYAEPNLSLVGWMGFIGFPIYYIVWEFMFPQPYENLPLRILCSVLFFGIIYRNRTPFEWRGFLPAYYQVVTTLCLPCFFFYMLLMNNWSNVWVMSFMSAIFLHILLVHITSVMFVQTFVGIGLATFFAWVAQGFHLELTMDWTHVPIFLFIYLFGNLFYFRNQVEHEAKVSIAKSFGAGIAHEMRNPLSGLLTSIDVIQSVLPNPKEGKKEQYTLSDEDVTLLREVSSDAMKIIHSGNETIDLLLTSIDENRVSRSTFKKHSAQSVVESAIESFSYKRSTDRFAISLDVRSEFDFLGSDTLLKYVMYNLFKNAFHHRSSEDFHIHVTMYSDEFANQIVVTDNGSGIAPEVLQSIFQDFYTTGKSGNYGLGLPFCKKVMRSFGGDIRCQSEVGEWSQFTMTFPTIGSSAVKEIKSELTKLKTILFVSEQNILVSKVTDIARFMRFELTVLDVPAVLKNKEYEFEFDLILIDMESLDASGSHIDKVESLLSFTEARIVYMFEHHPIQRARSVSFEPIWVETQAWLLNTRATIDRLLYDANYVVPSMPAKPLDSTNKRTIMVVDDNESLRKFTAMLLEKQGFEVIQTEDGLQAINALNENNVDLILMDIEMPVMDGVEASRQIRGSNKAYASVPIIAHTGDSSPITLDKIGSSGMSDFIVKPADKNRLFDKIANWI
The experiment in a line: V. harveyi bioluminescent reporter strain expressing cqsSVh. The class given is cell-based, Vibrio harveyi.

The next assay deals with CqsSVc (Vibrio cholerae serotype O1, UniProt Q9KM66). The experiment in a line: V. harveyi bioluminescent reporter strain expressing cqsSVc. The class given is cell-based.
Chain of CqsSVc (Q9KM66 whole entry, looked up): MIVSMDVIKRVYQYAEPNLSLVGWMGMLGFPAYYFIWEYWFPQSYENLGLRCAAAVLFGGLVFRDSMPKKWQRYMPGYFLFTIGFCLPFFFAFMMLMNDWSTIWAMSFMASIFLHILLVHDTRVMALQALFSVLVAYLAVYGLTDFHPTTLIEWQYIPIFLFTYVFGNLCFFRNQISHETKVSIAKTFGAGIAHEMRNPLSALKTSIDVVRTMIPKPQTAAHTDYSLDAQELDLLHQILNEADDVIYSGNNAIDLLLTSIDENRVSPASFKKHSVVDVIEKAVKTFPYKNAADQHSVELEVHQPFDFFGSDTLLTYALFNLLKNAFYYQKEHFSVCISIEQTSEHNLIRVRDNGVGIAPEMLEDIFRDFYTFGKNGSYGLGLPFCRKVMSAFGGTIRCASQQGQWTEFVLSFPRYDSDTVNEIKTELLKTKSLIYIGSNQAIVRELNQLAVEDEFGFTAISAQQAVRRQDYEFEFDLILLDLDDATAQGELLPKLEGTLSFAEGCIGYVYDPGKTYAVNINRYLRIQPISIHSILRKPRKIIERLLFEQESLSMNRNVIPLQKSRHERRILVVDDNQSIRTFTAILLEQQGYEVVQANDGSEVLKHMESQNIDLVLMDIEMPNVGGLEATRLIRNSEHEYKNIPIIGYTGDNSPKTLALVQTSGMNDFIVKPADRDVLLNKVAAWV

In turn, `CCCCCCCCCC(=O)[C@@H](O)CC` [C10-CAI-1, (S)-3-hydroxytridecan-4-one] showed an EC50 in the assay on CqsSPa (reporter expressing CqsSPa) of 12 nM. Besides, the “increase in light production” value with CqsSPa (reporter carrying cqsSPa, synthetic molecule at 5 μM) is given as ~ 1000 fold. In addition, the “detection of CAI-1 molecules” value with CqsSPa^S168C is “retained the ability to detect”.

As to `C/C=C(\N)C(=O)CCCCCCC` [Ea-C8-CAI-1, (Z)-3-aminoundec-2-en-4-one], the EC50 on CqsSVh was 100 nM. The light production result at CqsSVh (reporter carrying cqsSVh, synthetic molecule at 5 μM) is “produced light”. For the same compound, the “response (light production) in dose-response” value in the assay with CqsSPa (reporter expressing CqsSPa) was “modest response”.

Take `C/C=C(\N)C(=O)CCCCCCCCC` [Ea-C10-CAI-1]: the half-maximal effective concentration (EC50) was determined as 150 nM on CqsSVc and 4 nM in the assay on CqsSPa (reporter expressing CqsSPa). In the assay on CqsSPa^S168C, the “detection of CAI-1 molecules” value is recorded as “retained the ability to detect”.

The EC50 is the concentration giving half of the maximal effect. Low values mean greater potency, high ones weaker potency.

These data come from PMC3959898 (Molecular microbiology, 2014).
